According to patent US9486506B2 (Novo Nordisk A/S, priority 2011, dated 2016):
Numbered stars: 1 amine (or outer) side, 2 acyl side, 3 side chain; on linkers, the order of the positions; unused ones are H or OH. Side chains are listed from the residue outwards. Peptide text beside a SMILES is read from it. * marks the point of attachment. X1 = O=C(CCCCCCCCCCCCCCCc1nnn[nH]1)NS(=O)(=O)CCCC(=O)*; C16 diacid = O=C(O)CCCCCCCCCCCCCCC(=O)*; γGlu = O=C(O)[C@H](CCC(=O)[*:2])N[*:1]; AEEA = NCCOCCOCC(=O)O

Tests used:
[1] = Assay (X) Chemical stability assessment by RP-UPLC; format: physicochemical; settings: pH 8.15, 14 days at 37° C. vs 5° C., 333 μM
[2] = target: T1, glucagon receptor (Homo sapiens, UniProt P47871); assay: Assay (I) Glucagon activity (cAMP biosensor, FLIPR); format: cell-based
T1 construct: expressed in transfected cells
T1 sequence (P47871 26-477): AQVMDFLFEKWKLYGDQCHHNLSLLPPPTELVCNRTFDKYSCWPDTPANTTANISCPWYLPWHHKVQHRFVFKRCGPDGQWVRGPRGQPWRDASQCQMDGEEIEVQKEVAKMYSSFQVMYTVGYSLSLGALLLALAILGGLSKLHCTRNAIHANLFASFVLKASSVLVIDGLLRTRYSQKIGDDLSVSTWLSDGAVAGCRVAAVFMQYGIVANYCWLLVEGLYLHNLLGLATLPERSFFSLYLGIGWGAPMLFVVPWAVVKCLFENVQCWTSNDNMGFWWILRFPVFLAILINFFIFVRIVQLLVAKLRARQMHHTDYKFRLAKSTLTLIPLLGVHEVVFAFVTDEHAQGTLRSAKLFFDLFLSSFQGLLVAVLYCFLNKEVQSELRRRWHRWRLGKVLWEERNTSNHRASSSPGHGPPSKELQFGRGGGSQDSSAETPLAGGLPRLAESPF

| Compound | Chemical stability [Purity loss/14 days 37 C.] [1] | EC50 [2] |
| --- | --- | --- |
| CC(C)C[C@H](NC(=O)[C@H](Cc1ccc(O)cc1)NC(=O)[C@H](CCCCN)NC(=O)[C@H](CO)NC(=O)[C@H](Cc1ccc(O)cc1)NC(=O)[C@H](CC(=O)O)NC(=O)[C@H](CO)NC(=O)[C@@H](NC(=O)[C@H](Cc1ccccc1)NC(=O)[C@@H](NC(=O)CNC(=O)[C@H](CCC(N)=O)NC(=O)[C@H](CO)NC(=O)[C@@H](N)Cc1c[nH]cn1)[C@@H](C)O)[C@@H](C)O)C(=O)N[C@@H](CCC(=O)O)C(=O)N[C@@H](CO)C(=O)N[C@@H](CCCNC(=N)N)C(=O)N[C@@H](CCCNC(=N)N)C(=O)N[C@@H](C)C(=O)N[C@@H](CCC(N)=O)C(=O)N[C@@H](CC(=O)O)C(=O)N[C@@H](Cc1ccccc1)C(=O)N[C@H](C(=O)N[C@@H](CCCCNC(=O)CC[C@H](NC(=O)CC[C@H](NC(=O)COCCOCCNC(=O)CC[C@H](NC(=O)CCCS(=O)(=O)NC(=O)CCCCCCCCCCCCCCCc1nnn[nH]1)C(=O)O)C(=O)O)C(=O)O)C(=O)N[C@@H](Cc1c[nH]c2ccccc12)C(=O)N[C@@H](CC(C)C)C(=O)N[C@@H](CC(C)C)C(=O)N[C@@H](CO)C(=O)N[C@H](C(=O)O)[C@@H](C)O)C(C)C [Example 65, N^ε24-[(4S)-4-carboxy-4-[[(4S)-4-carboxy-4-[[2-[2-[2-[[(4S)-4-carboxy-4-[4-[16-(1H-tetrazol-5-yl)hexadecanoylsulfarnoyl]butanoylamino]butanoyl]amino]ethoxy]ethoxy]acetyl]amino]butanoyl]amino]butanoyl]-[Glu15,Lys24,Leu27,Ser28]-Glucagon] (H-HSQGTFTSDYSKYLESRRAQDFVK([γGlu-γGlu-AEEA-γGlu-X1])WLLST-OH; N-terminus and C-terminus assumed) | 7.8% | 362 pM |
| CC(C)C[C@H](NC(=O)[C@H](Cc1ccc(O)cc1)NC(=O)[C@H](CCCCN)NC(=O)[C@H](CO)NC(=O)[C@H](Cc1ccc(O)cc1)NC(=O)[C@H](CC(=O)O)NC(=O)[C@H](CO)NC(=O)[C@@H](NC(=O)[C@H](Cc1ccccc1)NC(=O)[C@@H](NC(=O)CNC(=O)[C@H](CCC(N)=O)NC(=O)[C@H](CO)NC(=O)[C@@H](N)Cc1c[nH]cn1)[C@@H](C)O)[C@@H](C)O)C(=O)N[C@@H](CCC(=O)O)C(=O)N[C@@H](CO)C(=O)N[C@@H](CCCNC(=N)N)C(=O)N[C@@H](CCCNC(=N)N)C(=O)N[C@@H](C)C(=O)N[C@@H](CCC(N)=O)C(=O)N[C@@H](CC(=O)O)C(=O)N[C@@H](Cc1ccccc1)C(=O)N[C@H](C(=O)N[C@@H](CCCCNC(=O)CC[C@H](NC(=O)CC[C@H](NC(=O)COCCOCCNC(=O)CCCS(=O)(=O)NC(=O)CCCCCCCCCCCCCCCc1nnn[nH]1)C(=O)O)C(=O)O)C(=O)N[C@@H](Cc1c[nH]c2ccccc12)C(=O)N[C@@H](CC(C)C)C(=O)N[C@@H](CC(C)C)C(=O)N[C@@H](CO)C(=O)N[C@H](C(=O)O)[C@@H](C)O)C(C)C [Example 66, N^ε24-[(4S)-4-carboxy-4-[[(4S)-4-carboxy-4-[[2-[2-[2-[4-[16-(1H-tetrazol-5-yl)hexadecanoylsulfarnoyl]butanoylamino]ethoxy]ethoxy]acetyl]amino]butanoyl]amino]butanoyl][Glu15,Lys24,Leu27,Ser28]-Glucagon] (H-HSQGTFTSDYSKYLESRRAQDFVK([γGlu-γGlu-AEEA-X1])WLLST-OH; N-terminus and C-terminus assumed) | 8.3% | 395 pM |
| CC(C)C[C@H](NC(=O)[C@H](CC(=O)O)NC(=O)[C@H](CC(C)C)NC(=O)[C@H](Cc1ccc(O)cc1)NC(=O)[C@H](CCCNC(=N)N)NC(=O)[C@H](CO)NC(=O)[C@H](Cc1ccc(O)cc1)NC(=O)[C@H](CC(=O)O)NC(=O)[C@H](CO)NC(=O)[C@@H](NC(=O)[C@H](Cc1ccccc1)NC(=O)[C@@H](NC(=O)CNC(=O)[C@H](CCC(N)=O)NC(=O)[C@H](CO)NC(=O)[C@@H](N)Cc1c[nH]cn1)[C@@H](C)O)[C@@H](C)O)C(=O)N[C@@H](CCCNC(=N)N)C(=O)N[C@@H](CCCNC(=N)N)C(=O)N[C@@H](C)C(=O)N[C@@H](CCC(N)=O)C(=O)N[C@@H](CC(=O)O)C(=O)N[C@@H](Cc1ccccc1)C(=O)N[C@H](C(=O)N[C@@H](CCCCNC(=O)CC[C@H](NC(=O)CC[C@H](NC(=O)COCCOCCNC(=O)COCCOCCNC(=O)CC[C@H](NC(=O)CCCS(=O)(=O)NC(=O)CCCCCCCCCCCCCCCc1nnn[nH]1)C(=O)O)C(=O)O)C(=O)O)C(=O)N[C@@H](Cc1c[nH]c2ccccc12)C(=O)N[C@@H](CC(C)C)C(=O)N[C@@H](CC(C)C)C(=O)N[C@@H](CO)C(=O)N[C@H](C(=O)O)[C@@H](C)O)C(C)C [Example 67, N^ε24-[(4S)-4-carboxy-4-[[(4S)-4-carboxy-4-[[2-[2-[2-[[2-[2-[2-[[(4S)-4-carboxy-4-[4-[16-(1H-tetrazol-5-yl)hexadecanoylsulfannoyl]butanoylamino]butanoyl]amino]ethoxy]ethoxy]acetyl]amino]ethoxy]ethoxy]acetyl]amino]butanoyl]amino]butanoyl]-[Arg12,Leu16,Lys24,Leu27,Ser28]-Glucagon] (H-HSQGTFTSDYSRYLDLRRAQDFVK([γGlu-γGlu-AEEA-AEEA-γGlu-X1])WLLST-OH) | 7.4% | 231 pM |
| CC(C)C[C@H](NC(=O)[C@H](CC(=O)O)NC(=O)[C@H](CC(C)C)NC(=O)[C@H](Cc1ccc(O)cc1)NC(=O)[C@H](CCCNC(=N)N)NC(=O)[C@H](CO)NC(=O)[C@H](Cc1ccc(O)cc1)NC(=O)[C@H](CC(=O)O)NC(=O)[C@H](CO)NC(=O)[C@@H](NC(=O)[C@H](Cc1ccccc1)NC(=O)[C@@H](NC(=O)CNC(=O)[C@H](CCC(N)=O)NC(=O)[C@H](CO)NC(=O)[C@@H](N)Cc1c[nH]cn1)[C@@H](C)O)[C@@H](C)O)C(=O)N[C@@H](CCCNC(=N)N)C(=O)N[C@@H](CCCNC(=N)N)C(=O)N[C@@H](C)C(=O)N[C@@H](CCC(N)=O)C(=O)N[C@@H](CC(=O)O)C(=O)N[C@@H](Cc1ccccc1)C(=O)N[C@H](C(=O)N[C@@H](CCCCNC(=O)CC[C@H](NC(=O)CC[C@H](NC(=O)COCCOCCNC(=O)COCCOCCNC(=O)CCCS(=O)(=O)NC(=O)CCCCCCCCCCCCCCCc1nnn[nH]1)C(=O)O)C(=O)O)C(=O)N[C@@H](Cc1c[nH]c2ccccc12)C(=O)N[C@@H](CC(C)C)C(=O)N[C@@H](CC(C)C)C(=O)N[C@@H](CO)C(=O)N[C@H](C(=O)O)[C@@H](C)O)C(C)C [Example 68, N^ε24-[(4S)-4-carboxy-4-[[(4S)-4-carboxy-4-[[2-[2-[2-[[2-[2-[2-[4-[16-(1H-tetrazol-5-yl)hexadecanoylsulfannoyl]butanoylamino]ethoxy]ethoxy]acetyl]amino]ethoxy]ethoxy]acetyl]amino]butanoyl]amino]butanoyl]-[Arg12, Leu16, Lys24, Leu27,Ser28]-Glucagon] (H-HSQGTFTSDYSRYLDLRRAQDFVK([γGlu-γGlu-AEEA-AEEA-X1])WLLST-OH) | 5.6% | 357 pM |
| CC(C)C[C@H](NC(=O)[C@H](Cc1ccc(O)cc1)NC(=O)[C@H](CCCCN)NC(=O)[C@H](CO)NC(=O)[C@H](Cc1ccc(O)cc1)NC(=O)[C@H](CC(=O)O)NC(=O)[C@H](CO)NC(=O)[C@@H](NC(=O)[C@H](Cc1ccccc1)NC(=O)[C@@H](NC(=O)CNC(=O)[C@H](CCC(N)=O)NC(=O)[C@H](CO)NC(=O)[C@@H](N)Cc1c[nH]cn1)[C@@H](C)O)[C@@H](C)O)C(=O)N[C@@H](CCC(=O)O)C(=O)N[C@@H](CO)C(=O)N[C@@H](CCCNC(=N)N)C(=O)N[C@@H](CCCNC(=N)N)C(=O)N[C@@H](C)C(=O)N[C@@H](CCC(N)=O)C(=O)N[C@@H](CC(=O)O)C(=O)N[C@@H](Cc1ccccc1)C(=O)N[C@H](C(=O)N[C@@H](CCCCNC(=O)CC[C@H](NC(=O)CC[C@H](NC(=O)COCCOCCNC(=O)COCCOCCNC(=O)CC[C@H](NC(=O)CCCCCCCCCCCCCCC(=O)O)C(=O)O)C(=O)O)C(=O)O)C(=O)N[C@@H](Cc1c[nH]c2ccccc12)C(=O)N[C@@H](CC(C)C)C(=O)N[C@@H](CC(C)C)C(=O)N[C@@H](CO)C(=O)N[C@H](C(=O)O)[C@@H](C)O)C(C)C [Example 69, N^ε24-[(4S)-4-carboxy-4-[[(4S)-4-carboxy-4-[[2-[2-[2-[[2-[2-[2-[[(4S)-4-carboxy-4-(15-carboxypentadecanoylamino)butanoyl]amino]ethoxy]ethoxy]acetyl]amino]ethoxy]ethoxy]acetyl]amino]butanoyl]amino]butanoyl]-[Glu15,Lys24,Leu27,Ser28]-Glucagon] | 8.2% | 71 pM |
| CC(C)C[C@H](NC(=O)[C@H](Cc1ccc(O)cc1)NC(=O)[C@H](CCCNC(=N)N)NC(=O)[C@H](CO)NC(=O)[C@H](Cc1ccc(O)cc1)NC(=O)[C@H](CC(=O)O)NC(=O)[C@H](CO)NC(=O)[C@@H](NC(=O)[C@H](Cc1ccccc1)NC(=O)[C@@H](NC(=O)CNC(=O)[C@H](CCC(N)=O)NC(=O)[C@H](CO)NC(=O)[C@@H](N)Cc1c[nH]cn1)[C@@H](C)O)[C@@H](C)O)C(=O)N[C@@H](CCC(=O)O)C(=O)N[C@@H](CO)C(=O)N[C@@H](CCCNC(=N)N)C(=O)N[C@@H](CCCNC(=N)N)C(=O)N[C@@H](C)C(=O)N[C@@H](CCC(N)=O)C(=O)N[C@@H](CC(=O)O)C(=O)N[C@@H](Cc1ccccc1)C(=O)N[C@H](C(=O)N[C@@H](CCCCNC(=O)CC[C@H](NC(=O)CC[C@H](NC(=O)COCCOCCNC(=O)COCCOCCNC(=O)CC[C@H](NC(=O)CCCCCCCCCCCCCCC(=O)O)C(=O)O)C(=O)O)C(=O)O)C(=O)N[C@@H](Cc1c[nH]c2ccccc12)C(=O)N[C@@H](CC(C)C)C(=O)N[C@@H](CC(C)C)C(=O)N[C@@H](CO)C(=O)N[C@H](C(=O)O)[C@@H](C)O)C(C)C [Example 70, N^ε24-[(4S)-4-carboxy-4-[[(4S)-4-carboxy-4-[[2-[2-[2-[[2-[2-[2-[[(4S)-4-carboxy-4-(15-carboxypentadecanoylamino)butanoyl]amino]ethoxy]ethoxy]acetyl]amino]ethoxy]ethoxy]acetyl]amino]butanoyl]amino]butanoyl]-[Arg12,Glu15,Lys24,Leu27,Ser28]-Glucagon] (H-HSQGTFTSDYSRYLESRRAQDFVK([γGlu-γGlu-AEEA-AEEA-γGlu-C16 diacid])WLLST-OH) | 7.6% | 140 pM |
